Holding throughout (experiment): NCI tumour cell line growth inhibition, 48 h
Test [1] concerns SK-MEL-5 melanoma.
The test system of test [2] is MDA-MB-231 breast.
The subject of test [3] is HOP-62 NSCLC.
Test [4] has as its system SR leukemia.
Test [5] has as its system SK-MEL-2 melanoma.
For test [6], the system named is SN12C renal.
The subject of test [7] is SK-OV-3 ovarian.
Test [8] concerns K-562 leukemia.
In test [9] the test system is SNB-19 CNS.
The test system of test [10] is SF-539 CNS.

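Cells were grown in 96-well plates and exposed to each compound for 48 hours at five concentrations; endpoints were interpolated linearly between bracketing concentrations, or set to the highest concentration if not reached. Abbreviation: GI50, concentration required for 50% inhibition of growth. TGI denotes the concentration required for complete inhibition of growth.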

Consider `Cc1ccc(C(=O)O)c(CC2Cc3c(C)cccc3C2=O)c1` (stereo not drawn), for which the TGI in test [1], in test [2], in test [3], in [4], in [5] and in test [6] was > 100 µM throughout. In addition, the TGI in test [7], in [8], in [9] and in test [10] was > 100 µM each time.

As to `O=[N+]([O-])c1c(Br)cc(Br)c2c1Nc1c(ccc(Cl)c1Cl)S2`, the TGI in test [1] was 30.2 µM; in [2] it was 26.6 µM; in test [3] it was 34.9 µM; in test [4] it was > 26.8 µM; in test [5], 39.2 µM; in test [6] it was 27.9 µM. For the same molecule, the TGI in [7] came out at 43 µM; in test [8] it was 17.3 µM; in [9] it was 35.1 µM; in test [10] it was 41.2 µM.

Turning to `C[C@@H](O)C(=O)N1[C@@H]2CC3CC[C@]2(CS1(=O)=O)C3(C)C`, the TGI is > 100 µM in [1]; > 100 µM in test [2]; > 100 µM in [3]; 58.5 µM in [4]; > 100 µM in test [5]; > 100 µM in test [6]. The TGI in test [7], in test [8], in test [9] and in test [10] was > 100 µM throughout.

In the case of `COc1nc2c(c(=O)n1C)N[C@H]1[C@H](OC(C)=O)[C@@H](OC(C)=O)CO[C@H]1N2`, the TGI in test [1], in test [2], in [3], in test [4], in test [5] and in [6] was > 100 µM throughout. Further, the TGI in test [7], in [8], in test [9] and in [10] was > 100 µM in each case.

Consider `CC1(C)OCC(C(O)C2OC(C)(C)OC2C=O)O1` (stereo not drawn), for which the TGI in test [1], in test [2], in test [3], in test [4], in [5] and in test [6] was > 100 µM in each case. Moreover, the TGI in test [7], in [8] and in test [9] was > 100 µM each time.

With `COc1cccc(CC(C)NCC(O)c2ccc(O)c(O)c2)c1` (stereo not drawn), the TGI in [1] is > 100 µM; in [2] it was 60.1 µM; in test [3], > 100 µM; in [4] it was 67.4 µM; in test [5], > 100 µM; in test [6], 83.8 µM. Besides, the TGI in test [7], in test [8], in test [9] and in test [10] was > 100 µM each time.

As to `C(=C\c1cccc(/C=C/c2ccccn2)n1)/c1ccccn1`, the TGI in test [1], in test [2], in test [3], in test [4], in [5] and in test [6] was > 100 µM in each case. Further, the TGI in test [7], in test [8], in test [9] and in test [10] was > 100 µM each time.

With `CN(C)c1nc(N(C)C)nc(N(C)C23CC4CC(CC(C4)C2)C3)n1`, the TGI in test [2] is 77.4 µM; in test [3], > 100 µM; in test [4], > 100 µM; in test [5] it was 55.5 µM; in [7], > 100 µM; in test [8], > 100 µM. The TGI was 96 µM in test [9] and > 100 µM in test [10].

As for `CCOC(=O)C(=[N+]=[N-])C(=O)Nc1nn2nnnc2c2ccccc12`, the TGI in [1], in test [2], in [3], in test [4], in test [5] and in test [6] was > 100 µM in each case. Further, the TGI in test [7], in test [8], in [9] and in test [10] was > 100 µM in each case.

For `Cc1nc2c3c(ncn2n1)Oc1c(c(-c2ccccc2)nn1-c1ccccc1)C3c1ccc(Cl)cc1` (stereo not drawn), the TGI in [2], in [3], in test [4], in test [5], in test [6] and in test [7] was > 100 µM each time. The TGI in [8] was > 100 µM; in test [9] it was > 100 µM; in test [10], 97.1 µM.

Take `O=C(CCN1CCCC1)Nc1ccc2sc3ccccc3c(=O)c2n1`: the TGI in test [1] was 16.4 µM; in test [2], 18.6 µM; in test [3] it was 19.6 µM; in [4], 23.7 µM; in test [5] it was 18 µM; in [6], 21.3 µM. For the same molecule, the TGI in test [7] was determined as 14.3 µM; in test [8], 21.3 µM; in test [9], 19.6 µM; in test [10], 18.1 µM.

In the case of `CC(C)=CCC[C@@H](C)C1=C(Nc2ccccc2Cl)C(O)=C(C)C(=O)C1=O`, the TGI in test [1] was 10.1 µM; in test [2], > 100 µM; in test [3], 22.7 µM; in [4] it was > 57.6 µM; in test [5] it was 19.2 µM; in [6] it was 25.2 µM. Moreover, the TGI was 33.5 µM in [7], > 64.1 µM in [8], 26.8 µM in test [9] and 19.8 µM in test [10].

For the molecule `CCOP(=O)(OCC)C(Nc1cccc(F)c1)c1ccccc1` (stereo not drawn), the TGI in test [1], in test [2], in test [3], in test [4], in test [5] and in [6] was > 100 µM throughout. Moreover, the TGI in [7], in test [8], in test [9] and in test [10] was > 100 µM each time.

For `CC(=O)OCC1OC(n2c3c(c(-c4cccc5ccccc45)c(C#N)c2=S)CCCC3)C(OC(C)=O)C(OC(C)=O)C1OC(C)=O` (stereo not drawn), the TGI in test [1], in test [2], in [3], in [4], in [5] and in test [6] was > 100 µM in each case. The TGI in test [7], in [8], in test [9] and in [10] was > 100 µM throughout.

In the case of `CCCCc1cc2c(C)cc(=O)oc2c(O)c1O`, the TGI was 46.5 µM in test [1]; 28 µM in [2]; 65.8 µM in test [3]; 40.2 µM in test [4]; > 100 µM in test [5]; > 100 µM in test [6]. The TGI was 73.5 µM in [8], > 100 µM in [9] and 47.4 µM in test [10].

Take `C=C(CCC(C)C1CCC2C3=C(C(=O)CC21C)C1(C)CCC(=O)[C@@H](C)C1CC3=O)C(C)C(=O)O` (stereo partly drawn): the TGI in [1] was > 100 µM; in test [2] it was > 100 µM; in test [3] it was > 100 µM; in test [4] it was 74.8 µM; in test [5] it was > 100 µM; in test [6], > 100 µM. The TGI was 5.46 µM in test [7], 35.2 µM in test [8], > 100 µM in test [9] and > 100 µM in test [10].

As to `N/N=C1/C2CN3CCN(C2)CC1(c1ccc([N+](=O)[O-])cc1)C3`, the TGI in test [1], in test [2], in test [3], in [4], in test [5] and in test [6] was > 100 µM each time. Moreover, the TGI in test [8], in test [9] and in test [10] was > 100 µM throughout.

For `Clc1ccc(N2N=C(c3cccc(Nc4ccncc4)c3)CC2c2ccc3c(c2)OCO3)cc1` (stereo not drawn), the GI50 in test [1] was 1.76 µM; in [2], 1.29 µM; in test [4], 2 µM; in test [5], 2.09 µM; in [6], 1.71 µM; in test [7] it was 4.31 µM. Besides, the GI50 in test [8] is 2.09 µM; in test [9] it was 1.94 µM; in test [10], 1.79 µM. In addition, the TGI was 3.17 µM in [1]; 2.64 µM in test [2]; 4.76 µM in test [4]; 4.59 µM in [5]; 3.25 µM in test [6]; 24.1 µM in [7]. Besides, the TGI in test [8] is 5.39 µM; in test [9], 4.51 µM; in test [10], 3.38 µM.

As for `CC[N+](C)(CC)CCC(O)(c1ccccc1)c1ccccc1`, the TGI in test [1], in [2], in test [3], in [4], in [5] and in test [6] was > 100 µM in each case. The TGI in test [7], in test [8] and in test [9] was > 100 µM each time.

Regarding `C/C(=N\NC(=S)N1CCCCC1)c1cccc(C)n1`, the TGI in [1] was 0.449 µM; in [2], 16.5 µM; in test [4], > 100 µM; in [5], 22.4 µM; in [6], 12.1 µM; in [8] it was > 73.8 µM. In addition, the TGI was > 36 µM in test [9] and 0.413 µM in [10].

With `N#Cc1nc(CCCCCN2C(=O)c3ccccc3C2=O)oc1N`, the TGI in [1], in [2], in test [3], in [4], in test [5] and in [6] was > 100 µM throughout. Also, the TGI in [7], in test [8], in [9] and in [10] was > 100 µM in each case.

In the case of `CCOC(=O)C1(C(=O)OCC)[C@H](c2ccccc2)C2=NO[C@@H]3CCC[C@H]1[C@H]23`, the TGI in test [1], in test [2], in test [3], in test [4], in test [5] and in [6] was > 100 µM each time. Further, the TGI in test [7], in test [8], in test [9] and in test [10] was > 100 µM in each case.

`CCNc1ccc2c(c1)Cc1ccccc1-2`: the TGI in [1], in test [2], in [3], in test [4], in test [5] and in test [6] was > 100 µM in each case. Also, the TGI in [8], in test [9] and in test [10] was > 100 µM each time.

With `Nc1ncnc2c1ncn2C1CCC(COS(N)(=O)=O)C1` (stereo not drawn), the TGI in [1], in test [2], in [3], in [4], in [5] and in test [6] was > 100 µM each time. The TGI in test [7], in test [8], in [9] and in test [10] was > 100 µM each time.

On to `N=c1oc2ccc3ccccc3c2cc1C(N)=O`, for which the TGI is > 100 µM in [1]; > 100 µM in test [2]; > 100 µM in [3]; > 100 µM in test [4]; 49.4 µM in [5]; > 100 µM in [6]. Also, the TGI in test [7] and in test [9] was > 100 µM each time.

With `COc1cc2nc(-c3ccc4ccccc4c3)[nH]c(=O)c2cc1OC`, the TGI in [1] was > 100 µM; in test [2], > 100 µM; in test [3], 84.3 µM; in [4], > 100 µM; in test [5], > 100 µM; in test [6], > 100 µM. Besides, the figures for the TGI in test [7], in test [8] and in test [9] were > 100 µM, > 100 µM and 97.2 µM, respectively.

As to `COc1ccc2c(c1)C(N)=C(c1ccccc1)C2=O`, the TGI in test [1], in test [2], in test [3], in [4], in [5] and in [6] was > 100 µM in each case. Moreover, the TGI in test [7], in [9] and in test [10] was > 100 µM each time.

Turning to `N#CC(C#N)=C1C(C#N)=C(N)NC12OCCO2`, the TGI in test [1], in test [2], in test [3], in test [4], in test [5] and in test [6] was > 100 µM in each case. In addition, the TGI in [7], in test [8] and in test [9] was > 100 µM in each case.

The values are drawn from PubChem BioAssay (NCI).
